# Columns and labels:
# JB6 P+ cells = test: Anchorage-independent cell growth assay (EGF-induced neoplastic transformation); format: cell-based, mouse; conditions: EGF 10 ng/ml, different concentrations
# Description: Cells were exposed to EGF (10 ng/ml) and treated with increasing concentrations of compound 1. Representative photographs are shown and data are presented as mean values±S.D. from triplicate experiments. […] Cells were treated with different concentrations of compound 1 for several days and cell proliferation was determined by a crystal violet staining assay.
# Cells (8×10^3/well) were seeded into 6-well plates with 0.3% Basal Medium Eagle agar containing 10% FBS with epidermal growth factor (EGF, 10 ng/ml) and different concentrations of compound 1 and then cultured for 1 to 2 weeks. Colonies were scored under a microscope using the Image-Pro PLUS (v6.) computer software program (Media Cybernetics. Rockville, Md.).
# MEK1/2 = test: Pull-down assay with HaCaT cell lysates; format: binding, human; conditions: HaCaT cell lysates 500 μg, Western blot
# Description: Active TOPK (200 ng) was incubated with different concentrations of ATP (0, 10 or 100 μM) and then mixed with compound 1-conjugated Sepharose 4B beads or Sepharose 4B beads. Proteins were pulled down and analyzed by Western blot. Data are representative of 3 independent experiments that gave similar results. FIGS. 2C and 2D show compound 1 binds to either TOPK (2C) or MEK1/2 (2D) ex vivo. Lysates from HaCaT cells (500 μg) were incubated with compound 1-conjugated Sepharose 4B beads or Sepharose 4B beads alone and the pulled-down proteins were analyzed by Western blot. Data are representative of 3 independent experiments that gave similar results. FIGS. 2E and 2F show compound 1 inhibits TOPK kinase (2E) activity but not MEK1 kinase (2F) activity in vitro. Active TOPK (200 ng) was mixed with compound 1 (0, 0.5, 1, 3, or 5 μM) or HI-032 (TOPK inhibitor, 10 μM) and then incubated with a [γ-^32P] ATP mixture. Similarly, MEK1 (200 ng) was mixed with compound 1 (0, 0.5, 1, 3, 5, or 10 μM) or PD098059 (MEK1 inhibitor, 5 μM) and then incubated with a [γ-^32P] ATP mixture. For 2E and 2F, the results are visualized by autoradiography and Coomassie blue staining serves as a loading control. Data are representative of 3 independent experiments that gave similar results. […]
# [1] = tested on: AP-1 activity in JB6 P+ cells; test: AP-1 luciferase reporter assay, SUV-induced; format: cell-based, mouse; conditions: JB6 P+ cells, 1.25, 2.5 or 5 μM, dose-dependently
# Description: The cells were cultured, treated for 4 h with different concentrations of compound 1 and then exposed to SUV (60 kJ UVA/m^2 and 2.9 kJ UVB/m^2), followed by an additional 15-minute incubation. Cells were harvested and the levels of phosphorylated and total proteins were determined by Western blot analysis with specific antibodies as indicated. […] The cells were cultured and treated with different concentrations of compound 1 for 24 h. Cells were harvested and the levels of phosphorylated and total proteins were determined by Western blot analysis with specific antibodies as indicated. […] For the luciferase assay, JB6 P+ cells stably transfected with an AP-1 luciferase reporter plasmid were cultured. After starvation for 24 h, cells were treated for 1 h with compound 1 (0, 1.25, 2.5, or 5 μM). Cells were then exposed to SUV (60 kJ UVA/m^2 and 2.9 kJ UVB/m^2) and harvested 3 h later. Luciferase activity was measured and AP-1 activity is expressed relative to control cells without SUV treatment. […] Knockdown of TOPK in A431 cell line (left). […] Luciferase and 3-galactosidase activities were measured using reagents included in the reporter assay system (right). […] Significant differences were evaluated using one-way ANOVA and the asterisks (*) indicate a significant effect (*, p<0.05; **, p<0.001; ***, p<0.0001). […]
smiles,measurement,setting,value
"O=C1Nc2ccc(C34CC5CC(CC(C5)C3)C4)cc2C1=NO [compound 1, 5-(adamantan-1-yl)-3-(hydroxyimino)indolin-2-one]",EGF-induced colony formation,JB6 P+ cells,attenuated
same,binding of MEK1/2 to compound-conjugated beads,MEK1/2,detected in the compound 1-conjugated beads group but not in the beads only group
same,SUV-induced transactivation of AP-1,[1],inhibited
